Measurements: article PMC9481151, “Discovery of new symmetrical and asymmetrical nitrile-containing 1,4-dihydropyridine derivatives as dual kinases and P-glycoprotein inhibitors: synthesis, in vitro assays, and in silico studies” (Journal of Enzyme Inhibition and Medicinal Chemistry, 2022)

Columns and labels:
CCRF-CEM = test: NCI single dose (10 µM) SRB screen; format: cell-based, human; conditions: leukaemia, 48 h
K-562 = test: NCI single dose (10 µM) SRB screen; format: cell-based, human; conditions: leukaemia, 48 h
MOLT-4 = test: NCI single dose (10 µM) SRB screen; format: cell-based, human; conditions: leukaemia, 48 h
RPMI-8226 = test: NCI single dose (10 µM) SRB screen; format: cell-based, human; conditions: leukaemia, 48 h
SR = test: NCI single dose (10 µM) SRB screen; format: cell-based, human; conditions: leukaemia, 48 h
EKVX = test: NCI single dose (10 µM) SRB screen; format: cell-based, human; conditions: non-small cell lung cancer, 48 h
HOP-62 = test: NCI single dose (10 µM) SRB screen; format: cell-based, human; conditions: non-small cell lung cancer, 48 h
HOP-92 = test: NCI single dose (10 µM) SRB screen; format: cell-based, human; conditions: non-small cell lung cancer, 48 h
NCI-H226 = test: NCI single dose (10 µM) SRB screen; format: cell-based, human; conditions: non-small cell lung cancer, 48 h
NCI-H23 = test: NCI single dose (10 µM) SRB screen; format: cell-based, human; conditions: non-small cell lung cancer, 48 h
NCI-H460 = test: NCI single dose (10 µM) SRB screen; format: cell-based, human; conditions: non-small cell lung cancer, 48 h
NCI-H522 = test: NCI single dose (10 µM) SRB screen; format: cell-based, human; conditions: non-small cell lung cancer, 48 h
COLO 205 = test: NCI single dose (10 µM) SRB screen; format: cell-based, human; conditions: colon cancer, 48 h
HCC-2998 = test: NCI single dose (10 µM) SRB screen; format: cell-based, human; conditions: colon cancer, 48 h
HCT-116 = test: NCI single dose (10 µM) SRB screen; format: cell-based, human; conditions: colon cancer, 48 h
HCT-15 = test: NCI single dose (10 µM) SRB screen; format: cell-based, human; conditions: colon cancer, 48 h
HT29 = test: NCI single dose (10 µM) SRB screen; format: cell-based, human; conditions: colon cancer, 48 h
KM12 = test: NCI single dose (10 µM) SRB screen; format: cell-based, human; conditions: colon cancer, 48 h
SW-620 = test: NCI single dose (10 µM) SRB screen; format: cell-based, human; conditions: colon cancer, 48 h
SF-268 = test: NCI single dose (10 µM) SRB screen; format: cell-based, human; conditions: CNS cancer, 48 h
SF-295 = test: NCI single dose (10 µM) SRB screen; format: cell-based, human; conditions: CNS cancer, 48 h
SNB-19 = test: NCI single dose (10 µM) SRB screen; format: cell-based, human; conditions: CNS cancer, 48 h
SNB-75 = test: NCI single dose (10 µM) SRB screen; format: cell-based, human; conditions: CNS cancer, 48 h
U251 = test: NCI single dose (10 µM) SRB screen; format: cell-based, human; conditions: CNS cancer, 48 h
LOX IMVI = test: NCI single dose (10 µM) SRB screen; format: cell-based, human; conditions: melanoma, 48 h
MALME-3M = test: NCI single dose (10 µM) SRB screen; format: cell-based, human; conditions: melanoma, 48 h
M14 = test: NCI single dose (10 µM) SRB screen; format: cell-based, human; conditions: melanoma, 48 h
MDA-MB-435 = test: NCI single dose (10 µM) SRB screen; format: cell-based, human; conditions: melanoma, 48 h
SK-MEL-2 = test: NCI single dose (10 µM) SRB screen; format: cell-based, human; conditions: melanoma, 48 h
SK-MEL-28 = test: NCI single dose (10 µM) SRB screen; format: cell-based, human; conditions: melanoma, 48 h
SK-MEL-5 = test: NCI single dose (10 µM) SRB screen; format: cell-based, human; conditions: melanoma, 48 h
IGROV1 = test: NCI single dose (10 µM) SRB screen; format: cell-based, human; conditions: ovarian cancer, 48 h
OVCAR-3 = test: NCI single dose (10 µM) SRB screen; format: cell-based, human; conditions: ovarian cancer, 48 h
OVCAR-5 = test: NCI single dose (10 µM) SRB screen; format: cell-based, human; conditions: ovarian cancer, 48 h
NCI/ADR-RES = test: NCI single dose (10 µM) SRB screen; format: cell-based, human; conditions: ovarian cancer, 48 h
SK-OV-3 = test: NCI single dose (10 µM) SRB screen; format: cell-based, human; conditions: ovarian cancer, 48 h
786-0 = test: NCI single dose (10 µM) SRB screen; format: cell-based, human; conditions: renal cancer, 48 h
SN12C = test: NCI single dose (10 µM) SRB screen; format: cell-based, human; conditions: renal cancer, 48 h
TK-10 = test: NCI single dose (10 µM) SRB screen; format: cell-based, human; conditions: renal cancer, 48 h
PC-3 = test: NCI single dose (10 µM) SRB screen; format: cell-based, human; conditions: prostate cancer, 48 h
DU-145 = test: NCI single dose (10 µM) SRB screen; format: cell-based, human; conditions: prostate cancer, 48 h
MDA-MB-231 = test: NCI single dose (10 µM) SRB screen; format: cell-based, human; conditions: breast cancer, 48 h
HS578T = test: NCI single dose (10 µM) SRB screen; format: cell-based, human; conditions: breast cancer, 48 h
T-47D = test: NCI single dose (10 µM) SRB screen; format: cell-based, human; conditions: breast cancer, 48 h
MDA-MB-468 = test: NCI single dose (10 µM) SRB screen; format: cell-based, human; conditions: breast cancer, 48 h
NCI 60 cancer cell lines = test: NCI single dose (10 µM) SRB screen, mean over panel; format: cell-based, human; conditions: mean over 60 cell lines, 48 h
Staphylococcus aureus = test: Agar well diffusion method
Bacillus subtilis = test: Agar well diffusion method
Escherichia coli = test: Agar well diffusion method
Pseudomonas aeruginosa = test: Agar well diffusion method
Candida albicans = test: Agar well diffusion method

Q: For COCCOC(=O)C1=C(C)NC(C)=C(C(=O)OC)C1c1cccc(C#N)c1 (racemic) [Compound 2d, (±)-3-(2-Methoxyethyl) 5-methyl 4-(3-cyanophenyl)-2,6-dimethyl-1,4-dihydropyridine-3,5-dicarboxylate], which “GI% CCRF-CEM” value (CCRF-CEM) is on record?
A: – (Only GI% ≥ 10 are shown)

Q: What about the “GI% K-562” value (K-562) of the same compound?
A: – (Only GI% ≥ 10 are shown)

Q: What about the “GI% MOLT-4” value (MOLT-4) of the same compound?
A: – (Only GI% ≥ 10 are shown)

Q: What about the “GI% RPMI-8226” value (RPMI-8226) of the same compound?
A: – (Only GI% ≥ 10 are shown)

Q: And the “GI% SR” value (SR)?
A: – (Only GI% ≥ 10 are shown)

Q: What about the “GI% EKVX” value (EKVX) of the same compound?
A: – (Only GI% ≥ 10 are shown)

Q: What about the “GI% HOP-62” value (HOP-62) of the same compound?
A: – (Only GI% ≥ 10 are shown)

Q: What about the “GI% HOP-92” value (HOP-92) of the same compound?
A: – (Only GI% ≥ 10 are shown)

Q: What about the “GI% NCI-H226” value (NCI-H226) of the same compound?
A: – (Only GI% ≥ 10 are shown)

Q: And the “GI% NCI-H23” value (NCI-H23)?
A: – (Only GI% ≥ 10 are shown)

Q: And the “GI% NCI-H460” value (NCI-H460)?
A: – (Only GI% ≥ 10 are shown)

Q: What about the “GI% NCI-H522” value (NCI-H522) of the same compound?
A: – (Only GI% ≥ 10 are shown)

Q: What about the “GI% COLO 205” value (COLO 205) of the same compound?
A: – (Only GI% ≥ 10 are shown)

Q: And the “GI% HCC-2998” value (HCC-2998)?
A: – (Only GI% ≥ 10 are shown)

Q: What about the “GI% HCT-116” value (HCT-116) of the same compound?
A: – (Only GI% ≥ 10 are shown)

Q: What about the “GI% HCT-15” value (HCT-15) of the same compound?
A: – (Only GI% ≥ 10 are shown)

Q: And the “GI% HT29” value (HT29)?
A: – (Only GI% ≥ 10 are shown)

Q: What about the “GI% KM12” value (KM12) of the same compound?
A: – (Only GI% ≥ 10 are shown)

Q: And the “GI% SW-620” value (SW-620)?
A: – (Only GI% ≥ 10 are shown)

Q: And the “GI% SF-268” value (SF-268)?
A: – (Only GI% ≥ 10 are shown)

Q: And the “GI% SF-295” value (SF-295)?
A: – (Only GI% ≥ 10 are shown)

Q: What about the “GI% SNB-19” value (SNB-19) of the same compound?
A: – (Only GI% ≥ 10 are shown)

Q: And the “GI% SNB-75” value (SNB-75)?
A: 15%

Q: What about the “GI% U251” value (U251) of the same compound?
A: – (Only GI% ≥ 10 are shown)

Q: What about the “GI% LOX IMVI” value (LOX IMVI) of the same compound?
A: – (Only GI% ≥ 10 are shown)

Q: And the “GI% MALME-3M” value (MALME-3M)?
A: – (Only GI% ≥ 10 are shown)

Q: And the “GI% M14” value (M14)?
A: – (Only GI% ≥ 10 are shown)

Q: And the “GI% MDA-MB-435” value (MDA-MB-435)?
A: – (Only GI% ≥ 10 are shown)

Q: And the “GI% SK-MEL-2” value (SK-MEL-2)?
A: – (Only GI% ≥ 10 are shown)

Q: And the “GI% SK-MEL-28” value (SK-MEL-28)?
A: – (Only GI% ≥ 10 are shown)

Q: What about the “GI% SK-MEL-5” value (SK-MEL-5) of the same compound?
A: – (Only GI% ≥ 10 are shown)

Q: What about the “GI% IGROV1” value (IGROV1) of the same compound?
A: – (Only GI% ≥ 10 are shown)

Q: What about the “GI% OVCAR-3” value (OVCAR-3) of the same compound?
A: – (Only GI% ≥ 10 are shown)

Q: And the “GI% OVCAR-5” value (OVCAR-5)?
A: – (Only GI% ≥ 10 are shown)

Q: And the “GI% NCI/ADR-RES” value (NCI/ADR-RES)?
A: – (Only GI% ≥ 10 are shown)

Q: What about the “GI% SK-OV-3” value (SK-OV-3) of the same compound?
A: – (Only GI% ≥ 10 are shown)

Q: And the “GI% 786-0” value (786-0)?
A: – (Only GI% ≥ 10 are shown)

Q: And the “GI% SN12C” value (SN12C)?
A: – (Only GI% ≥ 10 are shown)

Q: And the “GI% TK-10” value (TK-10)?
A: – (Only GI% ≥ 10 are shown)

Q: And the “GI% PC-3” value (PC-3)?
A: – (Only GI% ≥ 10 are shown)

Q: And the “GI% DU-145” value (DU-145)?
A: – (Only GI% ≥ 10 are shown)

Q: What about the “GI% MDA-MB-231” value (MDA-MB-231) of the same compound?
A: – (Only GI% ≥ 10 are shown)

Q: And the “GI% HS578T” value (HS578T)?
A: – (Only GI% ≥ 10 are shown)

Q: What about the “GI% T-47D” value (T-47D) of the same compound?
A: – (Only GI% ≥ 10 are shown)

Q: What about the “GI% MDA-MB-468” value (MDA-MB-468) of the same compound?
A: – (Only GI% ≥ 10 are shown)

Q: What about the “Mean GI%” value (NCI 60 cancer cell lines) of the same compound?
A: −2%

Q: What about the zone of inhibition at 1000 µg/mL (Staphylococcus aureus; Staphylococcus aureus, 24 h, read-out: Diameter of inhibition zone, S. aureus) of the same compound?
A: 15 mm

Q: And the “% activity index, S. aureus” value (Staphylococcus aureus; relative to ciprofloxacin)?
A: 62.5%

Q: And the zone of inhibition at 1000 µg/mL (Bacillus subtilis; Bacillus subtilis, 24 h, read-out: Diameter of inhibition zone, B. subtilis)?
A: 10 mm

Q: What about the “% activity index, B. subtilis” value (Bacillus subtilis; relative to ciprofloxacin) of the same compound?
A: 43.5%

Q: And the zone of inhibition at 1000 µg/mL (Escherichia coli; Escherichia coli, 24 h, read-out: Diameter of inhibition zone, E. coli)?
A: 10 mm

Q: And the “% activity index, E. coli” value (Escherichia coli; relative to ciprofloxacin)?
A: 38.5%

Q: What about the zone of inhibition at 1000 µg/mL (Pseudomonas aeruginosa; Pseudomonas aeruginosa, 24 h, read-out: Diameter of inhibition zone, P. aeruginosa) of the same compound?
A: 14 mm

Q: And the “% activity index, P. aeruginosa” value (Pseudomonas aeruginosa; relative to ciprofloxacin)?
A: 60.9%

Q: What about the zone of inhibition at 1000 µg/mL (Candida albicans; Candida albicans, 24 h, read-out: Diameter of inhibition zone, C. albicans) of the same compound?
A: 12 mm

Q: And the “% activity index, C. albicans” value (Candida albicans; relative to clotrimazole)?
A: 44.4%
